Laboratory results taken from patent publication US6962695B1, “Modification of interferon alpha production” (Bionative AB, priority 1998, dated 2005).

Tests used:
[1] = system: non induced human leukocytes; assay: α-interferon production in non induced human leukocytes, ELISA of supernatant; assay type: cell-based; details: absence of a viral inducer
Description: Human leukocytes prepared from buffy coats and used in concentrations between 8 and 11 million cells per mL are incubated in a basal media (either EMEM or a modified EMEM) supplemented with 1.5 g/L of tricine and 4% (v/v) PEG precipitated plasma. The experiments are performed in a volume of 40 mL medium in 100 mL glass bottles under continuous stirring. The cells are primed with 100 IU/mL α-interferon for 1.5 hours at 37° C. before addition of 30 mL/L Sendai virus. After 1.5 hours the incubation temperature is decreased to 30° C. and the organic solvents are added to the incubation medium. The solvent used are acetone, DMSO (final concentration: 5 mL/L), 2-butanone, NN-dimethylacetamide, NMP, tetramethylene sulfoxide (2.5 mL/L), TMU (1.5 mL/L), 2-pyrrolidinone (1.25 mL/L), 4-metyl-2-pentanone, 1,3-dimetyl-2-imidazolidinone and N-ethyl-2-pyrrolidinone (0.6 mL/L). The incubation is then allowed to proceed overnight. The cells are removed by a centrifugation step and the supernatants are analysed by an ELISA to quantify α-interferon.
Example 1 is repeated with the same incubation conditions but with addition of 2-ABMP in combination with DMSO. The enhancing agents are added both to Sendai virus induced leukocytes and to non induced leukocytes and the effect on the α-interferon production is compared. The 2-ABMP is added at a concentration of 50 μg/ml and the amount of DMSO added is 5 mL/L.

[2] = system: Sendai virus induced human leukocytes; assay: α-interferon production in Sendai virus induced human leukocytes, ELISA of supernatant; assay type: cell-based; details: for effect on production of α-interferon (in words): virus induced primary leukocytes
Description: The human leukocytes used according to the invention are prepared from buffy coats by an initial centrifugation to fractionate the components, followed by sequential removal of the plasma layer and of the leukocyte fraction by suction. Residual red blood cells contaminating the leukocyte fraction are lysed twice with 2-4 volumes of cold 0.83% ammonium chloride and each lysis step is followed by centrifugation to collect the cells. The final leukocyte fraction is resuspended in a basal medium, e.g. EMEM (Eagle's minimum essential medium) supplemented with polyethylene glycol-(PEG)-precipitated human plasma. PEG-precipitated plasma is prepared by adding PEG 6000 to a final concentration of 6% (w/w) to human plasma. After precipitation for 3-5 days in a cold room the supernatant is removed and stored frozen until used. The temperature of the incubation medium is set to 36-37° C. and continuous stirring is used. Human PEG-precipitated plasma is added to a concentration of 1-5% (v/v), preferably 4% (v/v). A low amount of α-interferon (normally 100 IU/ml) is added to the incubation medium as a priming step, but other concentrations, up to several thousands of units per ml can be used. Human leukocytes are then added to a concentration of about 3-15 million cells per mL, preferably 7-11 million cells per mL. The similar size of the enhancing effect observed using the different cell concentrations makes it probable that the effect can be seen also at cell concentrations outside this range. The priming step is normally allowed to proceed for 1-5 hours, preferably 1.5-2 hours. […] A decrease of the incubation temperature to 29° C. -32° C. is performed (Morser, J. And Shuttleworth, J. (1981) J. Gen. Virology 56, 163-174) after another 1 to 4 hours, preferable after 1 to 2 hours. The concentration range where the additives are effective in increasing the interferon production varies between the different compounds but for the least toxic solvents a positive effect can be seen in the range of 1 mM-0.3 M, preferably in the range of 3 mM-50 mM and most preferably within 5 mM-20 mM. For the more toxic solvents the suitable concentration lies within the more limited ranges. […] After these additions, the incubation is allowed to proceed overnight with continuous stirring. A centrifugation step is performed to remove the cells and the supernatants are analysed by an ELISA to quantify α-interferon. Human leukocytes prepared from buffy coats and used in concentrations between 8 and 11 million cells per mL are incubated in a basal media (either EMEM or a modified EMEM) supplemented with 1.5 g/L of tricine and 4% (v/v) PEG precipitated plasma. […] The cells are removed by a centrifugation step and the supernatants are analysed by an ELISA to quantify α-interferon. […]

**Q.** How did the “induction of α-interferon (in words)” value [1] turn out when Cc1nc(N)nc(O)c1Br [2-ABMP, 2-amino-5-bromo-6-methyl-4-pyrimidinol] was run?
**A.** did not induce α-interferon

**Q.** What about the “effect on production of α-interferon (in words)” value (“effect on production” for short) [2] of the same molecule?
**A.** act as an enhancing agent

**Q.** Which “effect on production” value [2] does the source give for C[S+](C)[O-] [dimethylsulfoxide] here?
**A.** enhanced

**Q.** For CCCC(=O)[O-].[Na+] [sodium butyrate], which “effect on yield of α-interferon (in words)” value ([2]; pre-treatment of primary leukocytes) is on record?
**A.** decrease

**Q.** For Cn1c(=O)c2[nH]cnc2n(C)c1=O [theophylline], which “effect on production” value [2] is on record?
**A.** enhanced
